We go through seven molecules from patent US9238631B2, “Radiolabeled amino acids for diagnostic imaging” (PIRAMAL IMAGING SA, priority 2011, dated 2016).

Molecules are shown by their SMILES.

Data set [1] has as its system A549 tumor. Particulars: cited from earlier work.
The test system of data set [2] is NCI-H460 (human NSCLC) cells. As to the kind of experiment: Time-dependent uptake and blocking of [^18F]-41 in NCI-H460 cells. In kind it is cell-based. Particulars: co-incubation with 1 mM 41, 30 minutes. Here is the method:
NCI-H460 (human NSCLC) cells, grown adherently in 48 well plates were used for these experiments. Approximately 100.000 cells were incubated in PBS-buffer containing 0.1% BSA with 0.25 MBq [^18F]-41 for up to 60 minutes. A time-dependent uptake was observed during the 60 min incubation period. Approximately 13% of applied dose was taken up by the cells during the 60 min incubation period (FIG. 6). For the blocking study [^18F]-41 was co-incubated with 1 mM 41 for 30 minutes. After this time, the cell bound radioactivity was determined.

In data set [3] the test system is reactive lymph nodes. As to the kind of experiment: PET uptake in inflammatory lesions (streptozotocin-induced reactive lymph nodes). In kind it is in vivo, mice. Particulars: dynamic PET 1 h, 3 days after streptozotocin. Here is the method: To test the specificity of compounds from the present invention, compound [^18F]-41 was examined in an animal model of reactive lymph nodes in comparison to the clinically commonly used PET tracer FDG. Therefore, female immunocompetent NMRI mice (10 weeks old) were injected with streptozotocin (500 μg/40 μL PBS) in the right hind limb to induce an inflammatory reaction in the right popliteal and additional lymph nodes. PET imaging studies were performed 3 days after Streptozotocin injection. PET images were acquired dynamically for 1 h after injection of approximately 5-10 MBq. After the imaging study, region-of-interest (ROI) analysis was performed in the popliteal, inguinal and iliacal lymph nodes. At least 3 animals were examined per tracer.

The subject of data set [4] is NCI-H460 tumor. As to the kind of experiment: In vivo biodistribution in NCI-H460 tumor bearing mice. Particulars: for T/Blood / T/Muscle: 1 h post injection. As for the experimental part: (§1) To test the pharmacokinetic properties of compounds from the present invention, all F18-labeled compounds were examined by biodistribution studies in NCI-H460 tumor bearing mice. Female NMRI (nu/nu) mice were inoculated with 5×10^6 NCI-H460 tumor cells 8 to 10 days before the biodistribution studies. 185 kBq of activity of the fluorinated compound was injected and at least n=3 mice were used for every time point. After injection of the F18-labeled compound, mice were sacrificed at defined time-points. All organs were removed and radioactivity was determined using a γ-counter.
To compare the tumor uptake and retention of radioactivity of different ^18F-labeled derivatives from the present invention, biodistribution studies were performed in NCI-H460 tumor bearing NMRI (nu/nu) mice as described above.
To compare the kidney clearance of several ^18F-labeled derivatives from the present invention, biodistribution studies were performed in NCI-H460 tumor bearing female NMRI (nu/nu) mice as described above. […] After 2 h p.i., less than 1% ID/g can be found in the kidneys.
For comparison of pancreas uptake and clearance of several ^18F-labeled derivatives from the present invention, biodistribution studies were performed in NCI-H460 tumor bearing NMRI (nu/nu) mice as described above. […] After 2 h p.i., less than 2% ID/g can be found in the pancreas.
as §1, with “and” for “for every time point. After injection of the F18-labeled compound, mice were”, “time-points raning from 15 min pi up to 2 h p.i.” for “time-points.”, “γ-counter. […] High tumor uptake values of >3% ID/g were obtained with various compounds from the present invention.” for “γ-counter.”

The target in data set [5] is T1, xCT (SLC7A11) (Homo sapiens, UniProt Q9UPY5).
T1 construct: NCI-H460 tumor cells were co-incubated with the F-18 labeled tracer and several cold derivatives; endogenous in cells; host or cells: NCI-H460 tumor cells
T1 sequence (Q9UPY5 1-501): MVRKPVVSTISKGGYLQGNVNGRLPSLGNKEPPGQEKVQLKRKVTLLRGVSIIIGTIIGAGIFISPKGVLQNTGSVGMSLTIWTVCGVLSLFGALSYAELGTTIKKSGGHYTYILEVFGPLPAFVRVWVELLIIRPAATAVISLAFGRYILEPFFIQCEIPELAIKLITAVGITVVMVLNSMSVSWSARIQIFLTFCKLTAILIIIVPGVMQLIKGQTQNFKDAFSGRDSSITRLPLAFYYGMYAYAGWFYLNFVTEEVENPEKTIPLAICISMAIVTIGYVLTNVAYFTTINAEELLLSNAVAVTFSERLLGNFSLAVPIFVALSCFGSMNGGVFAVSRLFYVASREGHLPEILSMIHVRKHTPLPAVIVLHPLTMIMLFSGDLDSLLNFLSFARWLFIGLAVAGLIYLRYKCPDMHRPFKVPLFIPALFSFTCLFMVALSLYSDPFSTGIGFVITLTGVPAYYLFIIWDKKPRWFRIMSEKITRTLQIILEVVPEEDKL
T1 sequence (P08195 1-529 partner): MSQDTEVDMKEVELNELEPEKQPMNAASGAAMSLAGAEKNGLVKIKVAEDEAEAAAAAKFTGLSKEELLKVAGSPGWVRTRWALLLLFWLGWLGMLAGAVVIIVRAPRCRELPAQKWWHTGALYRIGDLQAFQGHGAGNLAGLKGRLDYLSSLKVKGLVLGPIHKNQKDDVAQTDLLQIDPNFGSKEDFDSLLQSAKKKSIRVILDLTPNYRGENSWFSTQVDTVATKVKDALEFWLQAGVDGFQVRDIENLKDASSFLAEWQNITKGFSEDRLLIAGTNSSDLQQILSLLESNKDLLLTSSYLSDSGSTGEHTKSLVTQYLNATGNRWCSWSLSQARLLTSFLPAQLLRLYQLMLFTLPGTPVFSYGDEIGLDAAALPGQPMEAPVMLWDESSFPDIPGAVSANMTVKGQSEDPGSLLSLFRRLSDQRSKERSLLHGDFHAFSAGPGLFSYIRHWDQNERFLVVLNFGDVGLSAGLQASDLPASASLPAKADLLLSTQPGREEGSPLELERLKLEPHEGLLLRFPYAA
Put plainly: Competition profile indicating uptake via xCT (SLC7A11). Particulars: co-incubation with 1 mM cold competitors, NCI-H460 cells. In kind it is cell-based. Here is the method: For determination of the responsible uptake mechanism, NCI-H460 tumor cells were co-incubated with the F-18 labeled tracer and several cold derivatives. These derivatives were used at a concentration of 1 mM, which is a large excess compared to the tracer. L-Glutamic acid, L-cystine, Carboxyphenylglycine (CPG) were used as competitors. In addition, also D-Glutamic acid, as well as L-aspartic acid and D-aspartic acid were used in this competition experiments. […] The same experiments were performed using [^18F]-1, [^18F]-4, [^18F]-9, [^18F]-8, [^18F]-25 and [^18F]-22.

The test system of data set [6] is NCI-H460 (human NSCLC) cells. Put plainly: Cell uptake studies: 30 min uptake in H460 cells. In kind it is cell-based. Particulars: 0.25 MBq tracer, PBS 0.1% BSA. Here is the method:
For determination of the biological activity, the F18 labeled derivatives were used as tracers in cell uptake experiments. NCI-H460 (human NSCLC) cells, grown adherently in 48 well plates were used for these uptake-experiments. Approximately 100.000 cells were incubated with 0.25 MBq of the tracers for 30 min in PBS-buffer containing 0.1% BSA. After this time, the cell-bound radioactivity was determined using a γ-counter.

Data set [7] relates to NCI-H460 tumor. Put plainly: PET imaging in NCI-H460 tumor bearing nude-rats. In kind it is in vivo. Particulars: PET ROI analysis, 1 h p.i. As for the experimental part:
c) Beside PET-imaging studies in mice, also the imaging properties of [^18F]-12 in rats were examined. NCI-H460 tumor cells were inoculated into the right flank of nude-rats (RH-Foxn1 nu/nu) 8 to 10 days before the PET study. PET images were acquired at 60 min after injection of approximately 10 MBq for 10 minutes. The H460 tumor was nicely visible (0.9% ID/g as determined by ROI analysis). Beside some minor uptake into the liver and kidneys due to the excretion of the compound, no uptake into other non-target tissues was observed.
To test the imaging properties, compounds from the present invention were evaluated in PET imaging studies using tumor bearing rats. NCI-H460 tumor cells were inoculated into the right flank of nude-rats (RH-Foxn1 nu/nu) 8 to 10 days before the PET study. PET images were acquired at 60 min after injection of approximately 10 MBq for 10 minutes. After the imaging study, region-of-interest (ROI) analysis was performed and activity in tumor, liver and kidney was determined. […] High tumor uptake values of >1% […] in this rat model were obtained with various compounds from the present invention. A favorable clearance profile of all compounds enables excellent tumor detection in PET imaging studies in tumor bearing rats.

In the case of `N[C@@H](CC(CCC[18F])C(=O)O)C(=O)O` (stereo partly shown) [4-(3-[^18F]fluoropropyl)glutamic acid], in data set [1] (30 min post injection), the Kidney uptake is listed as 6.4 % ID/g and the pancreas uptake was 8.5 % ID/g. The tumor uptake in data set [1] (1 h post injection) is on record as 1.6 % ID/g.
Regarding `N[C@@H](CCC(Cc1ccc(OCF)cc1)C(=O)O)C(=O)O` (stereo partly drawn) [Example 41, (2S)-2-amino-5-[4-(fluoromethoxy)benzyl]hexanedioic acid], in data set [2], the “blocking of [^18F]-41 uptake” value is “strong competitor”.
With `OC[C@H]1OC(O)[C@H]([18F])[C@@H](O)[C@@H]1O` (stereo partly shown) [FDG, 2-[^18F]fluorodeoxyglucose, reference compound], in data set [3], the “time-course of activity in the reactive lymph nodes” value is listed as “remained almost constant”.
As for `N[C@@H](CC(Cc1ccc(OCCC[18F])cc1)C(=O)O)C(=O)O` (stereo partly drawn) [[^18F]-4, 4-[4-(3-[^18F]Fluoropropoxy)benzyl]-L-glutamic acid], in data set [4], the “Kidney (% ID/g at 1 h p.i.)” value was 1.0 ± 0.3 % ID/g, the “Liver (% ID/g at 1 h p.i.)” value stood at 1.5 ± 0.5 % ID/g, the “Pancreas (% ID/g at 1 h p.i.)” value is recorded as 0.8 ± 0.1 % ID/g and the “Tumor (% ID/g at 1 h p.i.)” value came out at 2.8 ± 1.8 % ID/g. Moreover, in data set [4], the “Urine (% ID at 1 h p.i.)” value is on record as 79.8 ± 2.2 % ID, the T/Blood is 14.5 and the T/Muscle amounted to 38.8. Also, the “competition profile / uptake mechanism of the tracer” value in data set [5] is listed as “identical competition profile”. Moreover, in data set [6], the “30 min uptake into H460 cells [%/100.000 cells]” value is recorded as 10.0 ± 0.3 %/100.000 cells. In addition, in data set [7], the “Kidney (% ID/g at 1 h p.i.)” value was 1.2 % ID/g, the “Liver (% ID/g at 1 h p.i.)” value came out at 1.1 % ID/g, the “Tumor (Max % ID/g at 1 h p.i.)” value amounted to 1 % ID/g and the “Tumor (Mean % ID/g at 1 h p.i.)” value stood at 0.7 % ID/g.
On to `N[C@@H](CC(Cc1ccc(CCC[18F])cc1)C(=O)O)C(=O)O` (stereo partly drawn) [[^18F]-9, 4-[4-(3-[^18F]Fluoropropyl)benzyl]-L-glutamic acid], for which, in data set [4], the “Kidney (% ID/g at 1 h p.i.)” value was 0.7 ± 0.04 % ID/g, the “Liver (% ID/g at 1 h p.i.)” value is given as 0.2 ± 0.1 % ID/g, the “Pancreas (% ID/g at 1 h p.i.)” value was 0.1 ± 0.01 % ID/g and the “Tumor (% ID/g at 1 h p.i.)” value came out at 1.8 ± 0.9 % ID/g. Also, in data set [4], the “Urine (% ID at 1 h p.i.)” value stood at 86.3 ± 7.1 % ID, the T/Blood was 20.5 and the T/Muscle was 61.7. Besides, the “competition profile / uptake mechanism of the tracer” value in data set [5] was “identical competition profile”. Moreover, the “30 min uptake into H460 cells [%/100.000 cells]” value in data set [6] is reported as 4.3 ± 0.2 %/100.000 cells.
In the case of `N[C@@H](CC(Cc1ccc(O[C@H]2C[C@@H]([18F])C2)cc1)C(=O)O)C(=O)O` (stereo partly drawn) [[^18F]-22, 4-{4-[(cis-3-[^18F]Fluorocyclobutyl)oxy]benzyl}-L-glutamic acid], in data set [4], the “Kidney (% ID/g at 1 h p.i.)” value amounted to 1.8 ± 0.6 % ID/g, the “Liver (% ID/g at 1 h p.i.)” value was determined as 4.1 ± 0.8 % ID/g, the “Pancreas (% ID/g at 1 h p.i.)” value is 0.63 ± 0.04 % ID/g and the “Tumor (% ID/g at 1 h p.i.)” value is reported as 1.3 ± 0.5 % ID/g. Moreover, in data set [4], the “Urine (% ID at 1 h p.i.)” value turned out to be 64.9 ± 4.3 % ID, the T/Blood was found to be 5.1 and the T/Muscle was determined as 32.3. Moreover, the “competition profile / uptake mechanism of the tracer” value in data set [5] is “identical competition profile”. The “30 min uptake into H460 cells [%/100.000 cells]” value in data set [6] was determined as 4.2 ± 0.1 %/100.000 cells. For the same molecule, in data set [7], the “Kidney (% ID/g at 1 h p.i.)” value was 0.5 % ID/g, the “Liver (% ID/g at 1 h p.i.)” value is recorded as 0.6 % ID/g, the “Tumor (Max % ID/g at 1 h p.i.)” value is 0.9 % ID/g and the “Tumor (Mean % ID/g at 1 h p.i.)” value turned out to be 0.3 % ID/g.
Take `N[C@@H](C[C@H](CCCc1ccc(OCC[18F])cc1)C(=O)O)C(=O)O` [[^18F]-25, (4S)-4-{3-[4-(2-[^18F]Fluoroethoxy)phenyl]propyl}-L-glutamic acid]: in data set [4], the “Kidney (% ID/g at 1 h p.i.)” value came to 0.2 ± 0.05 % ID/g, the “Liver (% ID/g at 1 h p.i.)” value is 0.2 ± 0.1 % ID/g, the “Pancreas (% ID/g at 1 h p.i.)” value was found to be 0.04 ± 0.01 % ID/g and the “Tumor (% ID/g at 1 h p.i.)” value came out at 0.5 ± 0.1 % ID/g. Besides, in data set [4], the “Urine (% ID at 1 h p.i.)” value is given as 86.6 ± 4.4 % ID, the T/Blood stood at 9.7 and the T/Muscle is given as 32.2. The “competition profile / uptake mechanism of the tracer” value in data set [5] is recorded as “identical competition profile”. Further, the “30 min uptake into H460 cells [%/100.000 cells]” value in data set [6] is 3.1 ± 01 %/100.000 cells.
